The nature of assay [1]: DPPH radical scavenging assay. The following applies: 30 min incubation, λ = 517 nm. As for the experimental part: The DPPH^• radical scavenging assay is based on transferring a hydrogen atom from the tested compounds to the violet stable free radical DPPH^• (2,2-diphenyl-1-picrylhydrazyl radical), converting it into a yellow compound. The assay was conducted using tested compounds and references in concentrations ranging from 2 to 50 µM, according to our adaptation of the protocol of Brand-Williams et al.. The absorbance of the samples is given by the remaining unreacted reagent radical, and it is inversely proportional to the amount of DPPH^• neutralized. The absorbance of the samples was measured at λ = 517 nm after 30 min of incubation in the dark at room temperature. The DPPH^• radical scavenging activity of the compounds was calculated using Equation (1):(1) DPPH^• scavenging (%)=control absorbance−sample absorbance/control absorbance×100

A short description of assay [2]: Indirect 1O2 scavenging assay (ICG photo-generator, DPBF probe). As for the experimental part:
The ^1O2 scavenging assay was employed using a previously established indirect protocol from our research group. In brief, indocyanine green (ICG), from Sigma–Aldrich (St. Louis, MO, USA), was utilized to induce ^1O2 production in the presence of 5a and 5b. Ascorbic acid was used as a reference antioxidant agent, and a blank sample without ^1O2 scavengers was prepared. The reaction mixtures were exposed to a Micro Raman System R-3000 (Photonitech, Singapore, Singapore) laser diode,(λ = 785 nm, 190 mW power) for a total time of 100 s. To evaluate the ^1O2 scavenging activity of the compounds 5a,b, the degradation of 1,3-diphenylisobenzofuran (DPBF), obtained from Alfa Aesar (Haverhill, MA, USA), was measured using a V-730 spectrophotometer (Jasco International Co., Ltd., Tokyo, Japan). To determine the ^1O2 quantum yields (Φ(^1O2)) of ICG in the presence of the studied molecules, the following equation was used: Φ(^1O2) = Φ(^1O2) ^ICG × ((S × F^ICG)/(S^ICG × F)), where S represents the slope of the absorbance difference of DPBF over time, F is the absorption correction factor (F = 1 − 10^−OD), and OD is the optical density at the excitation wavelength, λ = 785 nm. The Φ(^1O2) equal to 15.0% of free ICG was used as a reference. The concentrations utilized in the experiment were 0.1 mM for DPBF and 10^−5 M for ICG and the ^1O2 scavengers. Free DPBF was used as a control.
The efficacy of compounds 5a,b against ^1O2 was assessed using an indirect approach. ICG was used as a photo-induced ^1O2 generator alongside DPBF, serving as an indirect chemical probe capable of characterizing ^1O2 release in solution. This setup allowed us to evaluate the ^1O2 scavenging capacity of the tested molecules and compare their activity to a reference compound, specifically ascorbic acid. The samples were exposed to 785 nm laser radiation, and at 10-s intervals after irradiation, their UV-Vis absorption spectra were measured and analyzed (Figure 9). Subsequently, we determined the ^1O2 quantum yields (Φ(^1O2)) of ICG in the presence of 5a,b and ascorbic acid, using the Φ(^1O2) of free ICG of 15.0% as reference.

Assay [3] can be described thus: Ferrous ions chelation assay (ferrozine). As for the experimental part:
Solutions of the tested compounds or ethylenediaminetetraacetic acid disodium salt (EDTA-Na2), used as a positive control, were thoroughly mixed with 0.5 mL of FeSO4 (0.125 mM) and 0.5 mL of ferrozine (0.315 mM). After a 10-min incubation in the dark at room temperature, the absorbance was measured at λ = 562 nm.

Details of assay [4]: method as in PMID 30881661. Particulars: free ICG, used as reference; cited from earlier work.
Assay [5] in a line: ABTS radical cation decolorization assay. The following applies: 10 min incubation, pH 7.4, λ = 734 nm. As for the experimental part: The ABTS^•+ (2,2′-azinobis-(3-ethylbenzothiazoline-6-sulfonic acid) decolorization assay, based on the method of Re et al., was performed in the concentration range of 1 to 25 µM according to protocols previously reported by our group. The reagent was prepared in a 0.1 M potassium phosphate buffer (pH 7.4) and activated overnight with MnO2 [89]. Prior to use, the stability of the ABTS^•+ reagent was verified by checking its absorbance at λ = 734 nm over one hour, ensuring a consistent absorption of around 0.7. The mixtures were incubated for 10 min in the dark at room temperature. The absorbance of the samples is given by the remaining unreacted reagent radical, and it is inversely proportional to the amount of ABTS^•+ neutralized. The ABTS^•+ scavenging activity of compounds was calculated using Equation (2).(2) ABTS^•^+ scavenging (%)=control absorbance−sample absorbance/control absorbance×100

The test system of assay [6] is rat microsomal membrane lipid peroxidation. The assay can be described thus: Lipid peroxidation inhibition assay (LPI), 2-thiobarbituric acid method. The format is biochemical. The following applies: ascorbic acid/Fe^2+ system, 37 °C, 45 min. As for the experimental part: Rat liver microsomes were homogenized in saline, and the resulting homogenates were centrifuged at 9000× g for 20 min at 4 °C to remove cell debris. The supernatant underwent ultracentrifugation at 110,000× g for 40 min at 4 °C. The pelleted microsomal fraction was subsequently washed with saline via another round of ultracentrifugation under identical conditions. Thereafter, the pellet was resuspended in Tris-HCl buffer (pH 7.4) to achieve a concentration equivalent to 0.5 g liver per mL and was stored until further analysis (at −80 °C). For the assay, the microsomal preparation was thermally inactivated by incubation at 90 °C for 90 s, then homogenized again and diluted to a final concentration equivalent to 4 mM fatty acid equivalents. […] All mixtures were incubated at 37 °C under air with continuous shaking. […] This was followed by heating at 90 °C for 20 min and centrifugation at 3000 rpm for 15 min. As a result of the breakdown of unsaturated fatty acids, malondialdehyde reacts with the 2-thiobarbituric acid to produce a pink compound due to the formation of a Schiff base. The extent of lipid peroxidation was measured spectrophotometrically at 535/600 nm, which is proportional to the amount of the chromogen reaction product formed between 2-thiobarbituric acid and malondialdehyde. The determinations were performed in triplicate, and the standard deviation was within ±10% of the mean value.

The next assay relates to OR51E2. More on the design: method as in PMID 29249973. Particulars: RPE cells; cited from earlier work.

Each structure is given as a SMILES string.

In general, IC50 refers to the midpoint of a concentration-inhibition curve. Take `O=C1O[C@H]([C@@H](O)CO)C(O)=C1O` [Ascorbic acid, ascorbic acid, reference compound]: in assay [1], half-maximal inhibition (IC50) required 50.2 µM. The “^1O2 quantum yield Φ(^1O2) of ICG in the presence of the scavenger” value in assay [2] (10^−5 M ICG and scavenger, 785 nm laser, 100 s) stood at 9.4%. In assay [2] (addition of scavenger to ICG), the “reduction of ^1O2 quantum yield of ICG compared to ICG alone” value is given as 5.6%.

With `O=C([O-])CN(CCN(CC(=O)O)CC(=O)O)CC(=O)[O-].[Na+].[Na+]` [EDTA-Na2, ethylenediaminetetraacetic acid disodium salt, reference compound], the “% of ferrous ions chelation” value in assay [3] (50 nM) came to 11.71%; in assay [3] (100 nM) it was 20.00%; in assay [3] (150 nM), 36.37%; in assay [3] (175 nM), 61.98%; in assay [3] (200 nM), 86.53%.

For the compound `CC1(C)C(/C=C/C=C/C=C/C=C2\N(CCCCS(=O)(=O)O)c3ccc4ccccc4c3C2(C)C)=[N+](CCCCS(=O)(=O)[O-])c2ccc3ccccc3c21` [ICG, indocyanine green], the “^1O2 quantum yield Φ(^1O2) of ICG alone” value in assay [4] was 15%.

`Cc1c(C)c2c(c(C)c1O)CCC(C)(C(=O)O)O2` (stereo not shown) [Trolox, reference compound]: the IC50 in assay [1] worked out at 35.8 µM; in assay [5], 15.9 µM; in assay [6], 25 µM.

In the case of `CC(=O)/C=C/C1=C(C)CCCC1(C)C` [β-ionone], the “threshold concentration to trigger a cellular response” value in the assay on OR51E2 is “under 10 µM”.

Source of the values: article PMC12189671, “Antioxidant Activity and Cytotoxicity Evaluation of New Catechol Hydrazinyl-Thiazole Derivatives as Potential Protectors in Retinal Degenerative Processes” (Antioxidants, 2025).
